Test results from PubChem BioAssay (NCI).
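48-hour exposure; five concentrations; linearly interpolated endpoints. Definition used: TGI = concentration required for complete inhibition of growth.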

Columns and labels:
Experiment in all cases: inhibition of tumour cell growth, NCI panel, 48 h
MDA-MB-231 breast = tested on: MDA-MB-231 breast
CAKI-1 renal = tested on: CAKI-1 renal
RPMI-8226 leukemia = tested on: RPMI-8226 leukemia
CCRF-CEM leukemia = tested on: CCRF-CEM leukemia
U251 CNS = tested on: U251 CNS
NCI-H226 lung = tested on: NCI-H226 lung
SK-MEL-28 melanoma = tested on: SK-MEL-28 melanoma
A498 renal = tested on: A498 renal
PC-3 prostate = tested on: PC-3 prostate
MDA-MB-435 = tested on: MDA-MB-435
HCC-2998 colon = tested on: HCC-2998 colon
OVCAR-4 ovarian = tested on: OVCAR-4 ovarian
HOP-92 NSCLC = tested on: HOP-92 NSCLC
ACHN renal = tested on: ACHN renal
HS 578T breast = tested on: HS 578T breast
M14 melanoma = tested on: M14 melanoma
UACC-62 melanoma = tested on: UACC-62 melanoma
OVCAR-8 ovarian = tested on: OVCAR-8 ovarian
HCT-15 colon = tested on: HCT-15 colon
UACC-257 melanoma = tested on: UACC-257 melanoma
SR leukemia = tested on: SR leukemia
T-47D breast = tested on: T-47D breast
HT29 colon = tested on: HT29 colon
SF-539 CNS = tested on: SF-539 CNS
NCI/ADR-RES ovarian = tested on: NCI/ADR-RES ovarian
NCI-H460 lung = tested on: NCI-H460 lung
SF-268 CNS = tested on: SF-268 CNS
OVCAR-3 ovarian = tested on: OVCAR-3 ovarian
BT-549 breast = tested on: BT-549 breast
HCT-116 colon = tested on: HCT-116 colon
COLO 205 colon = tested on: COLO 205 colon
SF-295 CNS = tested on: SF-295 CNS
786-0 renal = tested on: 786-0 renal
SW-620 colon = tested on: SW-620 colon
SNB-75 CNS = tested on: SNB-75 CNS
LOX IMVI melanoma = tested on: LOX IMVI melanoma
NCI-H23 lung = tested on: NCI-H23 lung
KM12 colon = tested on: KM12 colon
HOP-62 NSCLC = tested on: HOP-62 NSCLC
TK-10 renal = tested on: TK-10 renal
DU-145 prostate = tested on: DU-145 prostate
EKVX NSCLC = tested on: EKVX NSCLC
OVCAR-5 ovarian = tested on: OVCAR-5 ovarian
SK-MEL-5 melanoma = tested on: SK-MEL-5 melanoma
MDA-N = tested on: MDA-N
SNB-19 CNS = tested on: SNB-19 CNS
SK-OV-3 ovarian = tested on: SK-OV-3 ovarian
NCI-H522 lung = tested on: NCI-H522 lung
RXF 393 renal = tested on: RXF 393 renal
SN12C renal = tested on: SN12C renal
K-562 leukemia = tested on: K-562 leukemia
HL-60(TB) leukemia = tested on: HL-60(TB) leukemia
IGROV1 ovarian = tested on: IGROV1 ovarian
SK-MEL-2 melanoma = tested on: SK-MEL-2 melanoma
MCF7 breast = tested on: MCF7 breast
MALME-3M melanoma = tested on: MALME-3M melanoma
A549 NSCLC = tested on: A549 NSCLC

Clc1cccc(C=NC23CC4CC(CC(C4)C2)C3)c1Cl
TGI (MDA-MB-231 breast): > 10 µM | TGI (CAKI-1 renal): > 10 µM | TGI (RPMI-8226 leukemia): > 10 µM | TGI (CCRF-CEM leukemia): > 10 µM | TGI (U251 CNS): > 10 µM | TGI (NCI-H226 lung): > 10 µM | TGI (SK-MEL-28 melanoma): > 10 µM | TGI (A498 renal): > 10 µM | TGI (PC-3 prostate): > 10 µM | TGI (MDA-MB-435): > 10 µM | TGI (HCC-2998 colon): > 10 µM | TGI (OVCAR-4 ovarian): > 10 µM | TGI (HOP-92 NSCLC): > 10 µM | TGI (ACHN renal): > 10 µM | TGI (HS 578T breast): > 10 µM | TGI (M14 melanoma): > 10 µM | TGI (UACC-62 melanoma): > 10 µM | TGI (OVCAR-8 ovarian): > 10 µM | TGI (HCT-15 colon): > 10 µM | TGI (UACC-257 melanoma): > 10 µM | TGI (SR leukemia): 2.63 µM | TGI (T-47D breast): > 10 µM | TGI (HT29 colon): > 10 µM | TGI (SF-539 CNS): > 10 µM | TGI (NCI/ADR-RES ovarian): > 10 µM | TGI (NCI-H460 lung): > 10 µM | TGI (SF-268 CNS): > 10 µM | TGI (OVCAR-3 ovarian): > 10 µM | TGI (BT-549 breast): > 10 µM | TGI (HCT-116 colon): > 10 µM | TGI (COLO 205 colon): > 10 µM | TGI (SF-295 CNS): > 10 µM | TGI (786-0 renal): > 10 µM | TGI (SW-620 colon): > 10 µM | TGI (SNB-75 CNS): > 10 µM | TGI (LOX IMVI melanoma): > 10 µM | TGI (NCI-H23 lung): > 10 µM | TGI (KM12 colon): > 10 µM | TGI (HOP-62 NSCLC): > 10 µM | TGI (TK-10 renal): > 10 µM | TGI (DU-145 prostate): > 10 µM | TGI (EKVX NSCLC): > 10 µM | TGI (OVCAR-5 ovarian): > 10 µM | TGI (SK-MEL-5 melanoma): > 10 µM | TGI (MDA-N): > 10 µM | TGI (SNB-19 CNS): > 10 µM | TGI (SK-OV-3 ovarian): > 10 µM | TGI (NCI-H522 lung): > 10 µM | TGI (RXF 393 renal): > 10 µM | TGI (SN12C renal): > 10 µM | TGI (K-562 leukemia): > 10 µM | TGI (HL-60(TB) leukemia): > 10 µM | TGI (IGROV1 ovarian): > 10 µM | TGI (SK-MEL-2 melanoma): > 10 µM | TGI (MCF7 breast): > 10 µM | TGI (MALME-3M melanoma): > 10 µM | TGI (A549 NSCLC): > 10 µM
